Legend:
[1] = tested on: J20 mice; assay: Morris water maze in J20 AD mice; format: in vivo; conditions: single TOP injection 275 μg
Source text: The J20 transgenic mouse line also used in the studies expresses a mutated human APP (hAPP: K670N/M671L and V717F) under the control of the platelet-derived growth factor promoter (Mucke et al. 2000). These mice have deficits in learning and memory, inhibition of long-term potentiation, loss of dendritic spines, profuse amyloid plaques, and increased phosphorylation of the tau protein. These mice also have increased RhoA-GTP activity and progressive decrease in spinal density when treated with oligomeric Aβ. See Pozueta et al. 2013.
Mice were trained to find a hidden platform in a circular pool of 1.10 m diameter located in a room with extra maze cues. The location of the platform ([…] diameter) was constant for each mouse during training and was placed 1 cm beneath the surface of the water, maintained at 24° C.±2° C. throughout the duration of the test. At the end of test, the mice were dried off and placed in a clean cage with extra paper towels to prevent hypothermia Animals were then monitored inside their cage until eating, drinking, and ambulating normally Mice were trained in sessions consisting of four trials a day for five consecutive days. Mice started from different quadrants on a random basis during each trial and all four quadrants were used on any given day. The maximum swimming time allowed on each trial was 60 seconds.
Probe trials (1 session: 1 trials/session) were conducted 24 hours after the last training trial. During the probe test the platform was removed and mice were free to swim in the pool for 60 seconds. Time spent in each quadrant was measured. Trial and probe test sessions were recorded and analyzed with a video tracking system (Noldus). After the probe, mice were tested in the visible test for two consecutive days, 2 sessions/day with 3 trials/session to assess whether the mice were able to locate a visible platform (its location varied between the three trials of the same session). The ability of the mice to locate a clearly visible platform was also tested in order to exclude differences in vision, swim speed, and motivation. […]

[2] = tested on: Arc; assay: Western blot of Arc in hippocampal neurons; format: cell-based, rat; conditions: Aβ for 8-10 hours
Experimental: Whole frozen mouse hippocampi, human brain specimens, and cultured cells were homogenized in RIPA buffer (ThermoFisher) supplemented with protease and phosphatase inhibitor cocktail (ThermoFisher), using a Teflon dounce homogenizer and centrifuged at 14,000 rpm for 10 minutes at 4° C. Supernatants were collected, normalized by BCA assay (ThermoFisher), and prepared for loading using sample buffer (SB) 4× (ThermoFisher) and dithiothreitol (DTT) 10× (ThermoFisher).
As observed in the Tg2576 mice hippocampi, the levels of Ube3A inversely correlated with the levels of Arc and Ephexin-5. To determine whether this correlation was also observed in hippocampal neurons, the cells were treated with Aβ for 8-10 hours, and whole cell lysates were collected for Western blot analysis.

| motor functions or motivation ([1]; speed and time to platform) | Molecule | learning (Morris water maze latency to platform) [1] | memory (Morris water maze time in target quadrant) [1] | levels of Arc protein [2] |
| --- | --- | --- | --- | --- |
| no effect | CC[C@@]1(O)C(=O)OCc2c1cc1n(c2=O)Cc2cc3c(CN(C)C)c(O)ccc3nc2-1 [TOP, topotecan] | did not affect | significantly increased |  |
|  | oAβ: synthetic soluble oligomeric Aβ1-42 |  |  | significant increase |
